# What was measured:
# [1] = test system: adenine-induced CKD rats; test: Parathyroid hyperplasia (PCNA immunohistochemistry, parathyroid weight) in adenine-induced CKD model; assay type: in vivo, rat; conditions: adenine diet rats, vs vehicle
# Source text: (§1) Male Sprague-Dawley rats (Charles River Laboratories) weighing 300-350 grams were used in these studies. All animals received standard lab chow (Harlan Teklad, Madison, Wis.) prior to the start of the studies. The standard lab chow was changed to a standard rodent lab chow that contained 0.75% adenine. Animals received food and water ad libitum. The animal protocol was approved by the Institutional Animal Care and Use Committee of Amgen Inc. (Thousand Oaks, Calif.).
# (§2) Animals were fed the adenine containing chow for 21 days, and prior to the start of the adenine diet animals were pre-bleed for baseline measurements of ionized calcium, PTH, BUN and creatinine and phosphorus levels (FIG. 9).
# (§3) Prior to placing animals on an adenine diet or administration of Compound B or vehicle baseline determininations of serum P, Ca, BUN, PTH and creatinine were performed. […] For measurement of blood ionized calcium levels, blood was collected from the abdominal aorta under anesthesthia (2% isofluorane in O2), prior to sacrifice, with heparinized capillary tubes and analyzed using a Ciba-Corning 634 ISE Ca^++/pH Analyzer (Ciba-Corning Diagnostics Corp, Medfield, Mass.). […] PTH levels were quantified according to the vendor's instructions using a rat PTH(1-34) immunoradiometric assay kit (Immutopics, San Clemente, CA). […]
# [2] = test system: adenine-induced CKD rats; test: PTH and serum chemistry profile in adenine-induced CKD model with vascular calcification; assay type: in vivo, rat; conditions: adenine diet rats, Compound B 3 mg/kg p.o. daily 21 days, vs vehicle
# Source text: as §1, §2
# Prior to placing animals on an adenine diet or administration of Compound B or vehicle baseline determininations of serum P, Ca, BUN, PTH and creatinine were performed. Blood was removed from the orbital sinus under while the rats were under anesthetisa (2% isoflurane in O2). After the time 0 bleed, animals were placed on the adenine containing chow and were administered Compound B at 3 mg/kg p.o. or vehicle (12% captisol in water) daily for 21 days. At the end of the study (day 21) animals were sacrificed and the aorta and parathyroid glands were removed for histopathological analysis. Blood was removed for blood chemistries and PTH determinations. For measurement of blood ionized calcium levels, blood was collected from the abdominal aorta under anesthesthia (2% isofluorane in O2), prior to sacrifice, with heparinized capillary tubes and analyzed using a Ciba-Corning 634 ISE Ca^++/pH Analyzer (Ciba-Corning Diagnostics Corp, Medfield, Mass.). Separately, blood was collected for PTH, blood urea nitrogen (BUN), creatinine, and serum phosphorus levels into SST (clot activator) brand blood tubes (BD, Franklin Lakes, N.J.) and allowed to clot. Serum was removed and stored at −70° C. until assayed. PTH levels were quantified according to the vendor's instructions using a rat PTH(1-34) immunoradiometric assay kit (Immutopics, San Clemente, CA). BUN, creatinine, and phosphorus levels were determined using a blood chemistry analyzer (Olympus AU 400, Melville, N.Y.).
# [3] = test system: adenine-induced CKD rats; test: Aortic vascular calcification by bone mineral density (PIXImus) in adenine-induced CKD model; assay type: in vivo, rat; conditions: adenine diet rats; Compound B 3 mg/kg p.o. daily 21 days, compared to vehicle on the same diet
# Source text: as §1
# as §3, with “performed. Blood was removed from the orbital sinus under while the rats were under anesthetisa (2% isoflurane in O2).” for “performed.”, “CA). BUN, creatinine, and phosphorus levels were determined using a blood chemistry analyzer (Olympus AU 400, Melville, N.Y.).” for “CA).”
# [4] = test system: 5/6 Nx rats; test: Ca and P content of thoracic aorta in 5/6 Nx rats given paricalcitol and/or Compound B (Example 3); assay type: in vivo, rat
# Source text: Wistar rats (200-250g), fed a 0.6% Ca and 1.2% P diet, were 5/6 nephrectomized (5/6 Nx) or sham-operated (sham).
# [5] = test system: 5/6 Nx rats; test: Soft tissue mineralization by Von Kossa staining in 5/6 Nx rats (Example 4); assay type: in vivo, rat; conditions: 14 days
# Source text: Wistar rats (200-250g), fed a 0.6% Ca and 1.2% P diet, were 5/6 nephrectomized (5/6 Nx).
# [6] = test system: 5/6 Nx rats; test: Serum PTH, ionized Ca, P and creatinine in 5/6 Nx rats given paricalcitol and/or Compound B (Example 3); conditions: 14 days
# [7] = 5/6 Nx rats, 14 days, compared to vehicle treated 5/6 Nx animals (Compound B also vs sham)
# [8] = Compound B administered to paricalcitol treated 5/6 Nx rats, compared to 5/6 Nx rats treated with paricalcitol
# [9] = thoracic aorta, 5/6Nx rats, 14 days, paricalcitol 240 ng/kg every 48 hr ip, Compound B 1.5 mg/kg every 48 hr sc
# [10] = Compound B 1.5 mg/kg every 48 hr sc to calcitriol-treated 5/6 Nx rats
# [11] = 5/6 Nx rats, compared to 5/6 Nx+vehicle
# [12] = 5/6Nx rats, paricalcitol 240 ng/kg every 48 hr ip, Compound B 1.5 mg/kg every 48 hr sc
# [13] = serum, 5/6Nx rats, paricalcitol 240 ng/kg every 48 hr ip, Compound B 1.5 mg/kg every 48 hr sc
smiles,measurement,setting,value
"COc1ccc(CNC(C)c2ccccc2)cc1-c1ccc(C(F)(F)F)cc1 (stereo not drawn) [Compound B, N-((6-(methyloxy)-4′-(trifluoromethyl)-1,1′-biphenyl-3-yl)methyl)-1-phenylethanamine]",Number of PCNA-positive cells (parathyroid),[1]; Compound B 3 mg/kg p.o. daily 3 weeks,significantly (p<0.01) reduced
same,Parathyroid weights,[1]; Compound B 3 mg/kg p.o. daily 21 days,significantly decreased
same,Serum P levels,[2],no significant (p>0.05) treatment effect
same,Serum PTH levels,[2]; p<0.0001,significantly reduced
same,Creatinine levels,[2]; p<0.05,decrease
same,Total serum calcium,[2]; p=0.0001,significantly reduced
same,Serum ionized calcium (iCa),[2]; p=0.004,significantly reduced
same,Blood urea nitrogen (BUN),[2]; p>0.05,no significant treatment effect
same,Reduction aortic bone mineral density,[3],75%
same,"Aortic Ca content, change in words",[4]; [7],did not significantly change
same,"Aortic P content, change in words",[4]; [7],did not significantly change
same,"Aortic Ca content, change in words",[4]; [8],significantly (p<0.05) reduced
same,"Aortic P content, change in words",[4]; [8],significantly (p<0.05) reduced
same,Aortic Ca,[4]; [9],2.6 ± 0.16 mg/g
same,Aortic P,[4]; [9],0.33 ± 0.05 mg/g
same,Heart mineralization (Von Kossa staining),[5]; [10],reduced
same,Kidney mineralization (Von Kossa staining),[5]; [10],reduced
same,Lung mineralization (Von Kossa staining),[5]; [10],reduced
same,Kidney mineralization (Von Kossa staining),[5]; Compound B 1.5 mg/kg every 48 hr sc to paricalcitol-treated 5/6 Nx rats,reduced
same,"Blood ionized calcium, change in words",[6]; [11],no changes
same,"Creatinine, change in words",[6]; [11],no changes
same,"Serum P levels, change in words",[6]; [11],no changes
same,"Serum PTH levels, change in words",[6]; [11],significantly (p<0.05) decreased
same,Creatinine,[6]; [12],0.98 ± 0.1 mg/dL
same,Ionized Ca,[6]; [12],0.93 ± 0.06 mM
same,P,[6]; [13],9.5 ± 1.5 mg/dL
same,PTH,[6]; [13],45 ± 1.8 pg/mL

# From patent publication US20060276534A1, “Methods of decreasing calcification” (Amgen Inc., priority 2005, published 2006)
